Results as given in US11751586B2, “Compositions and methods for improving taste of non-nutritive sweeteners” (PEPSICO, INC., priority 2016, dated 2023).
Entries after “also recorded” stand apart in the source; their conditions may differ.

Experiments:
[1] = molecular target: T1, sweet taste receptors T1R2/T1R3 (Homo sapiens, UniProt Q7RTX0+Q8TE23); assay: Taste receptor internalization assay (Ring Assay), sweet; assay type: cell-based; conditions: for EC50 value, sweet receptor dose response: combined with the stevia blend 4, Example 15; for slope of the dose response curve: with the stevia 4 blend, individual compound vs the combination of compounds 1 and 10, FIGS. 51, 52, 55
T1 construct: receptor internalization assay (“Ring Assay”) on an H716 cell line; endogenous in cells; host or cells: H716 cell line
T1 sequence (Q8TE23 20-839): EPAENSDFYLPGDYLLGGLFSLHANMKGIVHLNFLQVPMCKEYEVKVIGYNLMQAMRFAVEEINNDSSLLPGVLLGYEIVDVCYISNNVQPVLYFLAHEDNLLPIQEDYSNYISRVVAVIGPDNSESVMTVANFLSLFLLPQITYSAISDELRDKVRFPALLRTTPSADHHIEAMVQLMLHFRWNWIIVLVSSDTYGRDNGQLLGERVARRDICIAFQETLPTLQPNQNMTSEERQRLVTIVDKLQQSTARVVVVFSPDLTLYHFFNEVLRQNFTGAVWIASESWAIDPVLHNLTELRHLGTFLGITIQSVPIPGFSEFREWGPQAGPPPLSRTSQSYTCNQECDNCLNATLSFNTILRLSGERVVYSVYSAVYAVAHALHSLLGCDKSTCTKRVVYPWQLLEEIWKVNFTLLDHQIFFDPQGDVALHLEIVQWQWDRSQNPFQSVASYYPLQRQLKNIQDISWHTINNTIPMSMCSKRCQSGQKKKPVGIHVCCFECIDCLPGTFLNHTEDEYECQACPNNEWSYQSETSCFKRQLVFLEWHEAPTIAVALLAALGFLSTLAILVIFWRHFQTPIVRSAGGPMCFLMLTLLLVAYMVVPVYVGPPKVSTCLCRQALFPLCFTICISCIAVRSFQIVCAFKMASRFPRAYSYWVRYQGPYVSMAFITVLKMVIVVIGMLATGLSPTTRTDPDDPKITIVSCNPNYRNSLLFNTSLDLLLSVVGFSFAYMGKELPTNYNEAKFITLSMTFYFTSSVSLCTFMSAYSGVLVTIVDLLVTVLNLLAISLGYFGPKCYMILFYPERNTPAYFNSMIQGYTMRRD
T1 sequence (Q7RTX0 21-852): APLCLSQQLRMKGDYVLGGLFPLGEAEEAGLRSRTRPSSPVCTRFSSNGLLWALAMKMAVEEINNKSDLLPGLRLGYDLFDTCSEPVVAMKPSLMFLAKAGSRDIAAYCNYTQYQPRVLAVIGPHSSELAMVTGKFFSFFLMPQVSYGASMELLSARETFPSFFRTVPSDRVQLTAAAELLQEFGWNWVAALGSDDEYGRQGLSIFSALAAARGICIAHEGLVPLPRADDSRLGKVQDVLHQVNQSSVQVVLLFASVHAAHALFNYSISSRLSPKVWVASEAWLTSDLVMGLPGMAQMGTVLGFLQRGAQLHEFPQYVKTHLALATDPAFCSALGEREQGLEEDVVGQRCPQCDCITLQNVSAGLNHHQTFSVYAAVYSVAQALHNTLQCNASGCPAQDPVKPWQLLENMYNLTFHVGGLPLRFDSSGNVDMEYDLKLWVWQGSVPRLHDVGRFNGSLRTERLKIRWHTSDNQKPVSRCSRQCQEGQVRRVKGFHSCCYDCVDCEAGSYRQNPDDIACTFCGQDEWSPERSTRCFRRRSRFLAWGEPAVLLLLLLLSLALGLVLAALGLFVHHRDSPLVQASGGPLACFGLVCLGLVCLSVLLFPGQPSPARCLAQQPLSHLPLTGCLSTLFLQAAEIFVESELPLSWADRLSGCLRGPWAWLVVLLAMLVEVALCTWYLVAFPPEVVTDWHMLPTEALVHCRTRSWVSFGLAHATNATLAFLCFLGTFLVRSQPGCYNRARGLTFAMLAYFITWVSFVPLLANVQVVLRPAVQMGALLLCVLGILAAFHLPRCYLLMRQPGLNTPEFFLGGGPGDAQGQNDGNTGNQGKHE
Experimental: (§1) The control samples and samples I-X were tested for their ability to activate sweet taste receptors T1R2/T1R3, GLUT4, and Glucagon and bitter taste receptors T2R using a taste receptor internalization assay. Receptor activation and internalization was measured using images acquired by an IMAGEXPRESS Micro automated epifluorescence microscope (Molecular Devices Corporation). The images were analyzed with METAXPRESS 5.1 Workstation software, utilizing the Multiwaves Translocation Scoring analysis algorithm for nuclear and cytoplasmic segmentation. Curve fitting and parameter estimation were then analyzed with TIBCO SPOTFIRE.
(§2) Taste Receptor Internalization General Procedure:
The two control samples and Samples I-X were each serially diluted eight times at a ratio of […] in water (1 part sample to 2 parts water) and dose response was determined by conducting a receptor internalization assay (“Ring Assay”) on an H716 cell line with an HCI platform using the methods disclosed in PCT Patent Application Publication No. WO 2014/183041. Receptor internalization was measured at 5 and 15 minutes. EC50 values and Maximum-Minimum (“Max-Min”) values were calculated using SPOTFIRE software. Sweet, aftertaste, glucagon, and bitterness scoring were calculated using analysis of variance (ANOVA). A median value was then calculated by dividing the Max-Min value by the EC50 value for all time points. The median values, which represent receptor activity, were then plotted on radar graphs, as shown in FIGS. 9A-9B, 10A-10B, 11A-11B, 12A-12B, 13, 14A-14B, 15A-15B, 16A-16B, 17A-17B, 18A-18B, and 19.
Several sets of aqueous samples were prepared to study the dose response for the sweet taste receptors. One set of samples was prepared by adding the stevia blend 4 (1.3 wt % rebaudioside D and 6.7 wt % SG95) to water and adding 0.32 wt % potassium sorbate. Malic acid was added to the solution until the pH was 3.5. Eleven sets of aqueous samples were prepared by separately combining the same stevia 4 blend with either 2-methylbutanol or one of the compounds listed in Table 4. Another set of samples was prepared by adding sugar to water. Four additional sets of aqueous samples were prepared by separately combining each of the stevia blend 4, above, and sugar with either compounds 1 and 10 or compounds 2, 6, and 10 from Table 4. One final set of aqueous samples was prepared by combining the stevia blend 4, above, with compounds 1, 2, 3, and 10 from Table 4. Each set of samples were serially diluted and had concentrations ranging from about 0.001 nM to about 100 μM.
The aqueous samples were tested at varying concentrations for their ability to activate the sweet taste receptors in accordance with the procedures described in Example 8. Dose response curves were generated for the stevia 4 blend, sugar, and each compound-stevia 4 blend combination.

[2] = tested on: sweet taste receptors T1R2/T1R3, GLUT4, and Glucagon and bitter taste receptors T2R; assay: Taste receptor internalization assay, overall receptor response profile; assay type: cell-based; conditions: Sample X vs Sample IX; FIG. 10A
Experimental: as §1, §2
(§3) The two control samples and Samples I-X were each serially diluted eight times at a ratio of 1:1 in water (1 part sample to 2 parts water) and dose response was determined by conducting a receptor internalization assay (“Ring Assay”) on an H716 cell line with an HCI platform using the methods disclosed in PCT Patent Application Publication No. WO 2014/183041. Receptor internalization was measured at 5 and 15 minutes. EC50 values and Maximum-Minimum (“Max-Min”) values were calculated using SPOTFIRE software. Sweet, aftertaste, glucagon, and bitterness scoring were calculated using analysis of variance (ANOVA). A median value was then calculated by dividing the Max-Min value by the EC50 value for all time points. […]

Glucagon = assay: Taste receptor internalization assay (Ring Assay), glucagon; assay type: cell-based; conditions: added to 8% stevia blend 3 base solution; compared to the sample with compound 2
Experimental: as §1, §2, §3

[3] = tested on: bitter taste receptors T2R; assay: Taste receptor internalization assay (Ring Assay), bitter; assay type: cell-based
Experimental: as §1, §2, §3

[4] = compared with other steviol glycosides; cited from earlier work
[5] = compared with Rebaudioside A; cited from earlier work
[6] = added to 0.2% stevia blend 3 base solution, Example 11
[7] = added to 8 wt % stevia blend 3 base solution, Examples 10 and 11

## CC(C)CCO [Compound 2, 3-Methylbutanol]
[1]
  EC50 value, sweet receptor dose response: low
[1]; for the stevia 4 blend, FIG. 57
  taste modulator classification: sweet enhancer
[2]
  effect on the taste profile of stevia: sweet/glucagon enhancer

## CCCC[C@@H]1OC(=O)C[C@H]1C (relative stereo) [Compound 10, Trans-4-Methyl-5-butyldihydro-2(3H)-furanone]
[1]
  EC50 value, sweet receptor dose response: smaller
  slope of the dose response curve: smaller

## CCC(C)CO (centres unmarked) [2-methylbutanol]
[1]; [6]
  sweet receptor response: high sweet
[1]; [7]
  sweetness (sweet receptor) response: low sweet; also recorded: significantly lower
Glucagon
  glucagon receptor response: significantly lower
[3]; [6]
  bitterness receptor response: high sweet and bitterness
[3]; [7]
  bitterness receptor response: no bitterness

## C=C1C[C@@]23CC[C@H]4[C@@](C)(CCC[C@@]4(C)C(=O)O[C@@H]4O[C@H](CO)[C@@H](O)[C@H](O)[C@H]4O[C@@H]4O[C@H](CO)[C@@H](O)[C@H](O)[C@H]4O)[C@@H]2CC[C@]1(O[C@@H]1O[C@H](CO)[C@@H](O)[C@H](O[C@@H]2O[C@H](CO)[C@@H](O)[C@H](O)[C@H]2O)[C@H]1O[C@@H]1O[C@H](CO)[C@@H](O)[C@H](O)[C@H]1O)C3 [Rebaudioside D]
[4]
  taste profile: almost lacking the bitterness and lingering licorice aftertaste
[5]
  water solubility: less water soluble than Rebaudioside A

## CCCCOC(C)=O [Compound 1, Butyl Acetate]
[1]
  EC50 value, sweet receptor dose response: smaller
  slope of the dose response curve: smaller
